Experimental data: patent publication US10022317B2, “Composition comprising an extract of herbal medicine processed by an oriental herbal medicine processing” (AMOREPACIFIC CORPORATION, priority 2013, dated 2018)

Key:
collagenase = assay: Collagenase expression inhibiting effect in human fibroblasts (collagenase kit, absorbance 405 nm); format: cell-based; details: 10^-4 M in serum-free DMEM, 24 hours, relative to non-treated group as 100
Procedure: The collagenase production inhibiting activity of the substances of Comparative Examples and Examples was compared with tocopherol and EGCG as control substances.
Human fibroblasts were seeded onto a 96-well plate holding Dulbecco's modified Eagle's medium (DMEM) comprising 2.5% fetal bovine serum, with 5,000 cells/well, and cultured until ˜90% confluency. The cells were further cultured in serum-free DMEM for 24 hours and treated with the mixture of oriental herbal medicine processed ginseng polysaccharide and green tea polysaccharide prepared in Comparative Examples 1-5 and Examples 1-6 at 10^−4 M in serum-free DMEM for 24 hours. Then the cell culture was collected.
The degree of collagenase production from the collected cell culture was measured using a commercially available collagenase kit (Amersham Pharmacia, USA). […]
Absorbance was measured at 405 nm using a spectrophotometer and the expression level of collagenase was calculated according to Equation 1. The expression level was calculated with respect to the non-treated control group. Expression level of collagenase (%)=[…]{(Absorbance of cells treated with substances of Comparative Example or Example÷Absorbance of control)×100} [Equation 1] […]

procollagen = assay: Procollagen production promoting effect in human fibroblasts (procollagen type-1 C-peptide EIA kit); format: cell-based; details: 10^-4 M in serum-free DMEM, 24 hours, relative to non-treated group as 100
Procedure: The procollagen production promoting activity of the substances of Comparative Examples and Examples was compared with that of vitamin C. Human fibroblasts were seeded onto a 96-well plate holding Dulbecco's modified Eagle's medium (DMEM) comprising 2.5% fetal bovine serum, with 5,000 cells/well, and cultured until ˜90% confluency. The cells were further cultured in serum-free DMEM for 24 hours and treated with the mixture of oriental herbal medicine processed ginseng polysaccharide and green tea polysaccharide prepared in Comparative Examples 1-5 and Examples 1-6 and vitamin C dissolved to 10^−4 M in serum-free DMEM for 24 hours. 24 hours later, the amount of free procollagen was measured using the procollagen type-1 C-peptide EIA kit (MK101, Takara, Japan). The level of procollagen production is given in Table 2 relative to the non-treated group as 100.

O=C(O[C@@H]1Cc2c(O)cc(O)cc2O[C@@H]1c1cc(O)c(O)c(O)c1)c1cc(O)c(O)c(O)c1 [EGCG]
Expression level of collagenase (%) (collagenase): 63%

O=C1O[C@H]([C@@H](O)CO)C(O)=C1O [Vitamin C]
Level of procollagen production (%) (procollagen): 121%

Tocopherol
Expression level of collagenase (%) (collagenase): 76%
